Data reported in ChEMBL document CHEMBL1147472, “Design, synthesis, and evaluation of a new class of noncyclic 1,3-dicarbonyl compounds as PPARalpha selective activators” (Bioorg Med Chem Lett, 2004).

Legend:
[1] = target: T1, Peroxisome proliferator-activated receptor alpha (Homo sapiens) (UniProt Q07869); experiment: (§1) In vitro transcription activation on human peroxisome proliferator activated receptor-alpha (PPAR alpha)
T1 sequence (whole entry): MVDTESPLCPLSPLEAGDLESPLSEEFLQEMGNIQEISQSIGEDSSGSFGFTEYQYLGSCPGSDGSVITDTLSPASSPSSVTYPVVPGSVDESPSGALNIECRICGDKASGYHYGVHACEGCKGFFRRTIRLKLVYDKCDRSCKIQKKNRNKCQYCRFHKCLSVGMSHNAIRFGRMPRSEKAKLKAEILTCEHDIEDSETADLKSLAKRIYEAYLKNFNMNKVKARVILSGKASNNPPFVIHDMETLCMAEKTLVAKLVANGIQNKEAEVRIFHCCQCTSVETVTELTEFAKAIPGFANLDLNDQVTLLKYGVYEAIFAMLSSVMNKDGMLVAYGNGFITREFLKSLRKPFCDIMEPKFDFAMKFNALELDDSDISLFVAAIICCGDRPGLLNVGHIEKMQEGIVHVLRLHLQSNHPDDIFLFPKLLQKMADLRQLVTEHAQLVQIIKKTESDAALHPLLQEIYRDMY

[2] = target: T2, Peroxisome proliferator-activated receptor delta (Homo sapiens, UniProt Q03181); experiment: In vitro transcription activation on human peroxisome proliferator activated receptor-delta (PPAR delta)
T2 sequence (Q03181 whole entry): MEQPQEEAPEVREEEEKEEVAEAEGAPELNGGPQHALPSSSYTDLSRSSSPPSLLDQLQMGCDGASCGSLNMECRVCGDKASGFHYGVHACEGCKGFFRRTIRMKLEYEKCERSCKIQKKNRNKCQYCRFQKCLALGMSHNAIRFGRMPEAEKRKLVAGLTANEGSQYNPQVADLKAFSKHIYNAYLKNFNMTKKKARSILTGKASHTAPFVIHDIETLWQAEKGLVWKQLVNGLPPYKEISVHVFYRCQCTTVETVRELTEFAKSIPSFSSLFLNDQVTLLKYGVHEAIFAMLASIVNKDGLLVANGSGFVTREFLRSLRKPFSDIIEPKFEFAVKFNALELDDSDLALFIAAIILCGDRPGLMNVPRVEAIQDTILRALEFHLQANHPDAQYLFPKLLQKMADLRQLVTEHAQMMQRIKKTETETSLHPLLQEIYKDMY

[3] = target: T3, Peroxisome proliferator-activated receptor gamma (Homo sapiens, UniProt P37231); experiment: In vitro transcription activation on human peroxisome proliferator activated receptor-gamma (PPAR gamma)
T3 sequence (P37231 whole entry): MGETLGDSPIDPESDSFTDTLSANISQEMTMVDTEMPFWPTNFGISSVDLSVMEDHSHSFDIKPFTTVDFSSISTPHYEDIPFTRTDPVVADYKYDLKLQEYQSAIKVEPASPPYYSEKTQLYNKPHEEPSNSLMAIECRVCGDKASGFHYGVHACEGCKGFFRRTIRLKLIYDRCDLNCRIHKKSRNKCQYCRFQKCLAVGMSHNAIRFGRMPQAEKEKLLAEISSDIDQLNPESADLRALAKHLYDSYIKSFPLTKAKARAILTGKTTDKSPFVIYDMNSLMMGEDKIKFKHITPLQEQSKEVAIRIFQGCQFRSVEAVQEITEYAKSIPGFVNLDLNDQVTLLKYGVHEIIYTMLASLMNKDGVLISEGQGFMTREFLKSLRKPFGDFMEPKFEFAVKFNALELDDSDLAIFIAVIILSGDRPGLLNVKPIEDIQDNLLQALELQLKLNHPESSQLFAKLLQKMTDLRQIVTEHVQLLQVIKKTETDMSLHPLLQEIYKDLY

[4] = test system: Mus musculus; experiment: In vivo effect on blood glucose level in mice at a dose of 30 mg/kg by oral administration after two week; format: functional
[5] = target: T4, Peroxisome proliferator-activated receptor alpha (Homo sapiens, UniProt Q07869); experiment: as §1
T4 sequence (Q07869 whole entry): T1 sequence (whole entry)

[6] = target: T4, Peroxisome proliferator-activated receptor alpha; experiment: In vitro transcription activation on human peroxisome proliferator activated receptor-alpha (PPAR alpha); Inactive
[7] = target: T2, Peroxisome proliferator-activated receptor delta; experiment: In vitro transcription activation on human peroxisome proliferator activated receptor-delta (PPAR delta); Inactive
[8] = target: T3, Peroxisome proliferator-activated receptor gamma
[9] = target: T2, Peroxisome proliferator-activated receptor delta; experiment: In vitro transcriptional activation by human peroxisome proliferator activated receptor-delta (PPAR delta; Inactive
[10] = test system: Mus musculus; experiment: In vivo effect on blood glucose level in mice at the dose of 5 mg/kg by oral administration after two week; format: functional
[11] = test system: Mus musculus; experiment: In vivo effect on blood glucose level in mice at a dose of 20 mg/kg by oral administration after two week; format: functional
[12] = test system: Mus musculus; experiment: In vivo effect on blood glucose level in mice at a dose of 10 mg/kg by oral administration after two week; format: functional

Row | EC50 [5] [nM] | SMILES | Max response [1] [%] | EC50 [2] [µM] | EC50 [3] [nM] | EC50 [6] | EC50 [7] | further results
1 |  | O=C(O)C(Cc1ccc(OCCOc2ccc3c(c2)CCCC3)cc1)C(=O)O |  | 4.68 | 2110 | Not Active |  | 
2 |  | COC(=O)C(Cc1ccc(OCCOc2ccc3c(c2)C(C)(C)CCC3(C)C)cc1)C(=O)OC |  |  | 150 | Not Active | Not Active | 
3 | 90 | COC(=O)C(Cc1ccc(OCCOc2ccc3c(c2)NCCC3)cc1)C(=O)O (configuration not stated) | 207 | 3.09 | 3800 |  |  | 
4 |  | Cc1cccc(Nc2cc(Cl)nc(SCC(=O)O)n2)c1C [PIRINIXIC ACID] | 100 |  |  |  |  | EC50 [8]: Not Active
5 | 140 | NC(=O)C(Cc1ccc(OCCOc2ccc3c(c2)NCCC3)cc1)C(=O)O (configuration not stated) | 210 | 3.62 | 2880 |  |  | 
6 |  | O=C(O)C(Cc1ccc(OCCOc2ccc3c(c2)NCCC3)cc1)C(=O)O |  |  |  | Not Active | Not Active | EC50 [8]: Not Active
7 | 44 | COC(=O)C(Cc1ccc(OCCOc2ccc3ccccc3c2)cc1)C(=O)O (configuration not stated) | 264 | 1.05 | 1120 |  |  | 
8 |  | COC(=O)C(Cc1ccc(OCCOc2ccc3c(c2)CCCC3)cc1)C(=O)O (configuration not stated) |  | 2.45 | 690 | Not Active |  | 
9 |  | CCCCCCCCCCCCCCC(Br)C(=O)O (configuration not stated) |  | 3.72 |  |  |  | 
10 |  | CC1(C)CCC(C)(C)c2cc(OCCOc3ccc(CC(C(N)=O)C(=O)O)cc3)ccc21 (configuration not stated) |  |  |  | Not Active | Not Active | EC50 [8]: Not Active
11 |  | COC(=O)C(Cc1ccc(OCCOc2ccc3c(c2)C(C)(C)CCC3(C)C)cc1)C(N)=O (configuration not stated) |  |  | 830 | Not Active | Not Active | 
12 | 170 | COC(=O)C(Cc1ccc(OCCOc2ccc3c(c2)NCCC3)cc1)C(=O)OC | 215 | 3.16 | 3160 |  |  | 
13 |  | COC(=O)C(Cc1ccc(OCCOc2ccc3c(c2)CCCC3)cc1)C(N)=O (configuration not stated) |  |  | 3430 | Not Active | Not Active | 
14 |  | O=C(O)C(Cc1ccc(OCCOc2ccc3ccccc3c2)cc1)C(=O)O |  |  |  | Not Active |  | EC50 [9]: Not Active; EC50 [8]: Not Active
15 |  | CN(CCOc1ccc(CC2SC(=O)NC2=O)cc1)c1ccccn1 (configuration not stated) [ROSIGLITAZONE] |  |  |  |  |  | Reduction [10]: 62.96%
16 |  | Cc1oc(-c2ccccc2)nc1CCOc1ccc(CC2C(=O)NOC2=O)cc1 (configuration not stated) [REGLITAZAR] |  |  |  |  | Not Active | 
17 |  | CC1(C)CCC(C)(C)c2cc(OCCOc3ccc(CC(C(=O)O)C(=O)O)cc3)ccc21 |  |  | 2050 | Not Active | Not Active | 
18 |  | COC(=O)C(Cc1ccc(OCCOc2ccc3c(c2)C(C)(C)CCC3(C)C)cc1)C(=O)O (configuration not stated) |  |  | 90 | Not Active | Not Active | 

Row | SMILES | EC50 [5] [nM] | Max response [1] [%] | EC50 [2] [µM] | EC50 [3] [nM] | EC50 [6] | EC50 [7] | further results
19 | COC(=O)C(Cc1ccc(OCCOc2ccc3c(c2)CCCC3)cc1)C(=O)OC | 30 | 210 | 3.31 | 1500 |  |  | Reduction [4]: 38.15%
20 | NC(=O)C(Cc1ccc(OCCOc2ccc3ccccc3c2)cc1)C(=O)O (configuration not stated) | 250 | 213 | 2.63 | 3020 |  |  | Reduction [11]: 42.22%
21 | COC(=O)C(Cc1ccc(OCCOc2ccc3ccccc3c2)cc1)C(=O)OC | 70 | 264 | 1.27 | 530 |  |  | Reduction [4]: 46.76%; Reduction [12]: 35.08%
